Square brackets hold non-standard residues; d marks the D form. Peptide text beside a SMILES is read from it. NMeT = CN[C@H](C(=O)O)[C@@H](C)O; NMeL = CN[C@@H](CC(C)C)C(=O)O
Tests used:
Type in all cases: functional
Schistocerca gregaria [1] = assay: Tested for tissue (foreguts isolated from Schistocerca gregaria) contraction response at 2 uM
Schistocerca gregaria [2] = assay: Tested for tissue (foreguts isolated from Schistocerca gregaria) contraction response; No activity
Schistocerca gregaria [3] = assay: Tested for contraction Schistocerca gregaria gut at concentrations ranging from 10 nM to 5 uM and maximum response concentration reported
Schistocerca gregaria [4] = assay: Tested for tissue (foreguts isolated from Schistocerca gregaria) contraction response at 80 uM

**Q.** `CC(C)C[C@H](NC(=O)[C@H](Cc1ccc(O)cc1)NC(=O)[C@@H](N)CCCN=C(N)N)C(=O)N1CCC[C@H]1C(=O)N(C)[C@H](C(=O)O)[C@@H](C)O` (H-RYLP[NMeT]-OH) was tested. Which Max contraction (Schistocerca gregaria [1]) did it give?
**A.** Its Max contraction is 78%.

**Q.** Which Activity (Schistocerca gregaria [2]) does the source give for `CC(C)C[C@@H](NC(=O)[C@@H](Cc1ccc(O)cc1)N(C)C(=O)[C@@H](N)CCCN=C(N)N)C(=O)N1CCC[C@@H]1C(=O)N[C@H](C(=O)O)[C@H](C)O` here?
**A.** Its Activity is “No activity”.

**Q.** `CC(C)C[C@@H](NC(=O)[C@@H](Cc1ccc(O)cc1)NC(=O)[C@@H](N)CCCN=C(N)N)C(=O)N1CCC[C@@H]1C(=O)N[C@H](C(=O)O)[C@H](C)O` was tested. Which Concentration (Schistocerca gregaria [3]) did it give?
**A.** Its Concentration is 1 µM.

**Q.** Which Max contraction (Schistocerca gregaria [4]) does the source give for `CC(C)C[C@@H](C(=O)N1CCC[C@H]1C(=O)N[C@H](C(=O)O)[C@@H](C)O)N(C)C(=O)[C@H](Cc1ccc(O)cc1)NC(=O)[C@@H](N)CCCN=C(N)N` (H-RY[NMeL]PT-OH) here?
**A.** Its Max contraction is 52%.

— ChEMBL document CHEMBL1128614, “Proctolin and related N-methylated pentapeptides selectively contract locust foregut but not rat ileum” (1995)
